Measured values published in ChEMBL document CHEMBL1149000, “Effects of p-Methoxycinnamaldehyde from Star Anise and Related Cinnamic Acid Derivatives on Velvetleaf Germination” (J Nat Prod, 1986).

Columns and labels:
[1] = test system: Abutilon theophrasti; assay: Herbicidal activity against velvetleaf assessed as seed germination at 1 mM after 4 days relative to control; type: functional
[2] = test system: Abutilon theophrasti; assay: Herbicidal activity against velvetleaf assessed as seed germination at 5 mM after 4 days relative to control; type: functional
[3] = test system: Abutilon theophrasti; assay: Herbicidal activity against velvetleaf assessed as seed germination at 2.5 mM after 4 days relative to control; type: functional
[4] = Toxicity in rat; type: organism-based; details: in vivo
[5] = Inhibition of cAMP phosphodiesterase at 0.05 mM

Compound | Activity [1] [%] | Activity [2] [%] | Activity [3] [%] | LD50 [4] [mg/kg] | inhibition [5] [%]
COc1ccccc1/C=C/C=O | 77 | 0 | 3 |  | 
O=C/C=C/c1ccccc1 [CINNAMALDEHYDE] | 57 | 0 | 0 |  | 
O=C(O)/C=C/c1ccccc1 [CINNAMIC ACID] | 100 | 5 | 77 |  | 
COc1ccc(/C=C/C=O)cc1 [PARA-METHOXY CINNAMALDEHYDE] | 83 | 1 | 8 | > 5000 | 50
COc1ccc(/C=C/C(=O)O)cc1 [4-METHOXYCINNAMIC ACID] | 107 | 83 | 83 |  | 
OC/C=C/c1ccccc1 [CINNAMIC ALCOHOL] | 73 | 0 | 0 |  | 
C/C=C/c1ccc(OC)cc1 [ANETHOLE] | 98 | 95 | 100 |  | 
